Square brackets hold non-standard residues; d marks the D form. Ends that are not written are not given here. Peptide text beside a SMILES is read from it. pGlu = O=C1CC[C@@H](C(=O)O)N1; azaGly = NNC(=O)O
Assays:
[1] = test system: human leukocytes; experiment: Cytokine release from cultured human leukocytes; type: cell-based; settings: for effect on IL-4 production / effect on IL-8 production / effect on IL-10 production / effect on Interferon γ (INFγ) production: 2×10^−9 to 2×10^−7 M at 1, 3 and 20 hours; for activity on immune systems cytokines: compared among GnRH forms, varying doses
Protocol: Tissues of the immune system have been examined for the ability of their cells in vitro to respond to GnRH II (SEQ ID NO: 6) in culture medium. The media from cell cultures of immune system tissues have been examined for the release of cytokine into the medium after incubation with and without GnRH II analog (SEQ ID NO: 2).
Cell cultures of human leukocytes tissues have been prepared. […] The release of cytokines into the medium have been determined and compared for each form of GnRH studied.
We studied the effect of cytokines primarily produced by T cells. […] Concentrations of 2×10^−9 to 2×10^−7 M at 1, 3 and 20 hours were studied.
We have also studied cytokine produced primarily by B cells and macrophages. […] This is consistent with opposing activities followed by downregulation of the receptors with chronic high concentrations of the ligand.
Using our GnRH II analog (SEQ ID NO: 2) an inhibition of GM-CSF was clearly apparent after 20 hours of exposure.

[2] = Whole blood, plasma and serum stability of GnRH II analog; type: in vitro ADME
Protocol: FIG. 2 is a graph showing stability of GnRH II analog in blood and plasma. GnRH II Analog is stable throughout twenty-four hour of incubation in plasma and for the seventeen hours in serum following the initial serum formation.
The enzymatic degradation of the non-mammalian GnRH (SEQ ID NO: 6) and its analog (SEQ ID NO: 2) were studied using whole blood and plasma stability studies. A peptidase present in the immune system was used. Non-mammalian GnRH analogs (SEQ ID NO: 2) were designed with these specific criteria in mind. The stability of these non-mammalian GnRH analogs (SEQ ID NO: 2) to the enzymatic activity of the peptidase and in immune system cells were examined.
Each of these analogs was then studied for their ability to resist degradation over time of incubation with the immune system cells at 37° C. The reaction was stopped by freezing and the remaining GnRH I substrate, GnRH II substrate or non-mammalian analog was directly quantified by radioimmunoassay.
Studies using whole immune system cells were also performed. […] FIG. 2 is a graph showing stability of GnRH II in blood and plasma.

[3] = test system: immune system receptor; experiment: Immune system GnRH receptor binding; set-up: species or system human
Description: The receptor binding activity of non-mammalian GnRH (SEQ ID NO: 6 and SEQ ID NO: 7) and non-mammalian GnRH analogs (SEQ ID NO: 2 and SEQ ID NO: 4) of the present invention will be compared. There is a human non-mammalian GnRH receptor which is distinct from the GnRH I receptor at the pituitary. […] They have also been designed to limit degradation by the immune system enzymes, present in lymphatic circulation. Binding activity of the newly synthesized non-mammalian GnRH analogs (SEQ ID NO: 2 and SEQ ID NO: 4) has been studied in plasma.
The newly synthesized non-mammalian GnRH analogs (SEQ ID NO: 2 and SEQ ID NO: 4) and other commercially available analogs have been used in receptor binding studies in plasma and enzyme stability study described here. On the basis of these studies, the most receptor potent and most enzyme-stable analogs have been chosen for further biopotency studies. GnRH receptors have been purified from the fractions from immune system tissues. The purification procedure for the GnRH receptor utilized ethanol precipatation of the receptor and not the GnRH. The remaining non-mammalian GnRH binding assays activity using ^125I-D-Arg-GnRH II-Aza-Gly-2^125 label and GnRH II have been performed. Receptors from two different tissues from the same type of immune system cells have been used to study each of these analogs. […]

[4] = test system: human placental explants; settings: in vitro; cited from earlier work
[5] = test system: rhesus monkeys; settings: chronic administration, long-acting; cited from earlier work
[6] = test system: placental GnRH receptor; settings: cited from earlier work
[7] = target: T1, human pituitary GnRH receptor (Homo sapiens, UniProt P30968); settings: cited from earlier work
T1 sequence (P30968 1-328): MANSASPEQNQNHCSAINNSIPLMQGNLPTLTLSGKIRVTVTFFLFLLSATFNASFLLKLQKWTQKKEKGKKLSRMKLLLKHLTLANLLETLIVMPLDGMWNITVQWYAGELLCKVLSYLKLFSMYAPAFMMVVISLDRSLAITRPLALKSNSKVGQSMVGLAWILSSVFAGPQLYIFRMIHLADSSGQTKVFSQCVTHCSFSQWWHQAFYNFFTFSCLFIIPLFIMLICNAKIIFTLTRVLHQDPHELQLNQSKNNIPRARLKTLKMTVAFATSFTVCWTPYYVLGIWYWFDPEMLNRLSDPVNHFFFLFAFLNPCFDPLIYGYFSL

[8] = test system: T cells; settings: effects only seen after twenty-four hours; cited from earlier work
[9] = after one hour of treatment, still observed at 3 and 20 hours

affinity for the immune system receptor relative to GnRH I [3]	Molecule	effect on IL-4 production [1]	effect on IL-8 production [1]	effect on IL-10 production [1]	effect on Interferon γ (INFγ) production [1]	effect on Interleukin 12 (IL-12) [1, 9]	activity on immune systems cytokines [1]	affinity for the placental GnRH receptor [6]	affinity for the human pituitary GnRH receptor [7]	further results
greater affinity	N=C(N)NCCC[C@@H](NC(=O)[C@H](Cc1c[nH]cn1)NC(=O)[C@H](CO)NC(=O)[C@H](Cc1c[nH]c2ccccc12)NC(=O)[C@H](Cc1c[nH]cn1)NC(=O)[C@@H]1CCC(=O)N1)C(=O)N[C@@H](Cc1c[nH]c2ccccc12)C(=O)N[C@@H](Cc1ccc(O)cc1)C(=O)N1CCC[C@H]1C(=O)NNC(N)=O [GnRH II analog, D-Arg-GnRH II-aza-Gly-amide] ([pGlu]HWSH[dR]WYP[azaGly]-NH2)	no effects	no effects	no effects	no effects	inhibited	most active			effect on GM-CSF release ([1]; 20 hours): inhibition; stability in serum ([2]; seventeen hours in serum following the initial serum formation): stable; stability in plasma ([2]; throughout twenty-four hour of incubation in plasma): stable
	CCNC(=O)[C@@H]1CCCN1C(=O)[C@H](CCCNC(=N)N)NC(=O)[C@H](CC(C)C)NC(=O)[C@@H](COC(C)(C)C)NC(=O)[C@H](Cc1ccc(O)cc1)NC(=O)[C@H](CO)NC(=O)[C@H](Cc1c[nH]c2ccccc12)NC(=O)[C@H](Cc1cnc[nH]1)NC(=O)[C@@H]1CCC(=O)N1 [Buserelin]	no effects	no effects	no effects	no effects	inhibited				
greater affinity	salmon GnRH analog: salmon GnRH sequence modified at the 6 position using D-Arg and at the 10 position (ethylamide or aza-Gly^10-NH2)									
	[N-Ac-Pro,D-p-Cl-Phe,D-Nal(2)]-GnRH I									hCG production/release [4]: inhibition; placental prostanoids / basal prostaglandin production [4]: inhibited; progesterone production [4]: dramatically suppressed
	GnRH II: chicken II GnRH, natural non-mammalian GnRH isoform ([pGlu]HWSHGWYPG; ends and bridges not checked; listed as Gallus gallus)	no effects	no effects	no effects	no effects		greater activity	higher affinity	lesser affinity	effect on Interleukin 12 (IL-12) ([1]; at 3 hours): inhibition; effect on GM-CSF release ([1]; high dose, 3 hrs): inhibits; effect on GM-CSF release ([1]; low dose, 3 hrs): potent stimulant; contraceptive effect [5]: effective contraceptive agent; T cells adhesion and homing [8]: stimulates
	salmon GnRH: natural non-mammalian GnRH isoform of salmon ([pGlu]HWSYGWLPG; ends and bridges not checked)							higher affinity	lesser affinity	

Source: patent US20050043245A1, “Non-mammalian GnRH analogs and uses thereof in the immune system” (priority 2003, published 2005)
